# In patent US20210179680A1, “POLYPEPTIDE, DERIVATIVES THEREOF, AND APPLICATION THEREOF IN PREPARATION OF DRUGS HAVING RESISTANCE TO PULMONARY FIBROSIS” (priority 2016, published 2021):
# Bridge positions count the residues as written; N and C are the ends. Square brackets hold non-standard residues; d marks the D form. Peptide text beside a SMILES is read from it. S5 = C=CCCC[C@](C)(N)C(=O)O
# Columns and labels:
# [1] = system: mice with bleomycin-induced pulmonary fibrosis; test: HE staining pathomorphology and inflammatory score of bleomycin-induced pulmonary fibrosis; assay type: in vivo, C57BL/6 mice; conditions: Table 3 groups, 2 mg/kg i.p., after 28 days, grade 0-5
# Procedure: (§1) Male C57BL/6 mice were fasted overnight, then anesthetized with 45 mg/kg sodium pentobarbital by injection intraperitoneally (i.p.), and intratracheally injected with bleomycin at a dose of 3 U/kg. The specific operation steps are as follows: cut the neck skin of the mouse with as little trauma as possible, expose the trachea with the assistance of elbow ophthalmic forceps, puncture the trachea and inject about 50 μL of bleomycin into the trachea with a microsyringe, rotate the mouse quickly and stand it upright for 5 minutes in order to make bleomycin evenly enter the left and right lobe, thereby constructing an animal model. The whole operation was performed at a surgical table at about […]. Mice in the sham operation group were intratracheally injected with an equal amount of physiological saline for injection.
# General tissue changes and tissue products can be visualized by HE staining method, namely Hematoxylin and Eosin staining method, which is the most commonly used staining method for morphology. Among them, hematoxylin dyeing solution is an alkaline dyeing solution, which mainly makes the chromatin in the nucleus and the ribosome in the cytoplasm purple blue; eosin is an acid dye, which mainly makes the components in the cytoplasm and extracellular matrix red. Pulmonary fibrosis models were made according to the method described in Example 2 and administered in groups according to Table 3. After 28 days, the right lower lobe of lung tissue of the experimental animals was taken, and fixed with 4% (v/v) paraformaldehyde and embedded in paraffin. Section was performed on the largest cross-section of the paraffin block in which the lung tissue embedded, and basic pathological changes was observed through HE staining. […] The administration of polypeptides S1-S11 can reduce lung inflammation caused by bleomycin, and effectively ameliorate lung injury and restore normal lung structure.
# The inflammatory grading was observed according to the results of HE staining, and the criteria were as follows (grade 0-5): grade “0”: normal tissue; grade “1”: extremely small inflammatory changes; grade “2”: mild to moderate inflammatory changes without apparent destruction of lung tissue structure; grade “3”: moderate inflammatory injury (thickening of alveolar diaphragm); grade “4”: moderate to severe inflammatory injury with formation of tissue mass, or the normal structure of lung tissue was destroyed by localized pneumonia area; grade “5”: severe inflammatory injury, severe destruction of the localized lung tissue structure, resulting in closure of lumen.
# Pulmonary fibrosis models were made according to the method described in Example 2 and administered in groups according to Table 9. After 28 days, the right lower lobe of lung tissue of the experimental animals was taken, and fixed by 4% (v/v) paraformaldehyde and embedded in paraffin. Section was performed on the largest cross-section of the paraffin block in which the lung tissue embedded, and basic pathological changes was observed through HE staining.
# TRB3 protein = target: T1, TRB3 protein (Homo sapiens, UniProt Q96RU7); test: Surface plasmon resonance (Biacore T200) binding of polypeptides to TRB3 protein; conditions: SPR, FIG. 4-1, 4-2 and Table 1
# T1 construct: purchased RD
# T1 sequence (Q96RU7 1-358): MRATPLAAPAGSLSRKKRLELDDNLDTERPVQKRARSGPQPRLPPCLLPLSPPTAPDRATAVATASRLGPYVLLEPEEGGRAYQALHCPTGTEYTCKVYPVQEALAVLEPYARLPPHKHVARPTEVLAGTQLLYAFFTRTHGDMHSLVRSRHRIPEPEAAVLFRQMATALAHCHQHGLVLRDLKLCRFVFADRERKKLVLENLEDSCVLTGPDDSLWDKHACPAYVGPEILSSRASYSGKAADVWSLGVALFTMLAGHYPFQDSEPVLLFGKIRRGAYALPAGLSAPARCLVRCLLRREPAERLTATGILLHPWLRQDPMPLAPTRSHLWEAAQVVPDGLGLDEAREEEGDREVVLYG
# Procedure: The surface plasmon resonance experiment was carried out in a surface plasmon resonator Biacore T200, and the procedure was carried out in accordance with the instructions of the plasma resonator Biacore T200. Specific steps are as follows:
# 1. Purified TRB3 protein (purchased from RD) was coupled to a CMS chip (purchased from GE) by amidogen, and the unbound protein was eluted at a flow rate of 10 μL/min. The surface of the chip was equilibrated for 2 hours. Among them, the specific steps of amidogen coupling, elution and equilibration refer to the relevant instruction of GE's CMS chip.
# 2. 250 μL of the S1-S11 and MR2 polypeptide fragments prepared in Example 1 with different concentrations (800, 400, 200, 50, 12.5, 6.25, and 3.125 nM) were automatically injected, and the entire surface plasmon resonance experiment was carried out at 25° C. The buffer used was HBS-EP buffer [0.01 M HEPES, 0.15 M NaCl, 3 mM EDTA and 0.005% (w/w) surfactant TWEEN20]. Biacore T200's built-in analysis software was used to simulate the binding curves of different concentrations of peptides to TRB3.
# [2] = system: mice with bleomycin-induced pulmonary fibrosis; test: Survival rate of mice with bleomycin-induced pulmonary fibrosis; assay type: in vivo, C57BL/6 mice; conditions: Table 3 groups: 2 mg/kg i.p., 10th to 28th day after modeling, twice a week
# Procedure: as §1
# The animal model with pulmonary fibrosis was prepared according to the method described in Example 2. The peptide therapy was started from the 10th day after modeling (the treatment groups are shown in Table 3), and the time was calculated from the 10th day after modeling to count the mortality rate. The death situation of each group of experimental animals was counted and calculated daily. […] The survival rate is the percentage of the number of mice that survived accounting for the number of mice in the whole group. Results are shown in FIG. 6-1, FIG. 6-2 and Table 4. […] In FIG. 6-1 and FIG. 6-2, “##” represents that P value is less than 0.01 when the survival rate of administration group was compared with that of the sham operation group; “*” represents that P value is less than 0.05 when the survival rate of administration group was compared with that of the bleomycin group; “**” represents that P value is less than 0.01 when the survival rate of administration group was compared with that of bleomycin group; and “i.p.” refers to intraperitoneal injection.
# The animal model of pulmonary fibrosis was prepared according to the method described in Example 2. The polypeptide treatment was started from the 10th day after modeling (the treatment groups are shown in Table 9), and the time was calculated from the 10th day after modeling to count the mortality rate. The mortality rate of each group of experimental animals was recorded and calculated daily. If none of the animals in a group died, the survival rate of the group is 100%. If all the animals in a group died, the survival rate is 0%. […] In FIG. 12, “##” represents that P value is less than 0.01 when the survival rate of the administration groups were compared with that of the sham operation group; “*” represents that P value is less than 0.05 and “**” represents that P value is less than 0.01 when the survival rate of the administration groups were compared with bleomycin group.
SMILES,Inflammatory score [1],interaction with the TRB3 protein (in words) (TRB3 protein),Survival rate (%) 7 days [2],Survival rate (%) 14 days [2],Survival rate (%) 21 days [2],Survival rate (%) 28 days [2]
"CSCC[C@H](NC(=O)[C@H](CC(C)C)NC(=O)[C@@H](N)Cc1c[nH]cn1)C(=O)N[C@@H](C)C(=O)N[C@@H](CS)C(=O)N[C@@]1(C)CCCC=CCCC[C@@](C)(C(=O)N[C@@H](CCCCN)C(=O)N[C@@H](CC(C)C)C(=O)N[C@@H](CCCCN)C(=O)N[C@@H](CCCCN)C(=O)N[C@@H](CCCNC(=N)N)C(=O)O)NC(=O)[C@H](C)NC(=O)[C@H](CS)NC(=O)[C@H]([C@@H](C)O)NC1=O [S6, His-Leu-Met-Ala-Cys-S5-Thr-Cys-Ala-S5-Lys-Leu-Lys-Lys-Arg] (H-HLMAC[S5]TCA[S5]KLKKR-OH; staple 6-10; N-terminus and C-terminus assumed)",3,interacted with the TRB3 protein,100%,86.67%,80%,80%
"CSCC[C@H](NC(=O)[C@H](CC(C)C)NC(=O)[C@@H](N)Cc1c[nH]cn1)C(=O)N[C@@H](C)C(=O)N[C@@H](CS)C(=O)N[C@@H](Cc1ccccc1)C(=O)N[C@@]1(C)CCCC=CCCC[C@@](C)(C(=O)N[C@@H](CC(C)C)C(=O)N[C@@H](CCCCN)C(=O)N[C@@H](CCCCN)C(=O)N[C@@H](CCCNC(=N)N)C(=O)O)NC(=O)[C@H](CCCCN)NC(=O)[C@H](C)NC(=O)[C@H](CS)NC1=O [S7, His-Leu-Met-Ala-Cys-Phe-S5-Cys-Ala-Lys-S5-Leu-Lys-Lys-Arg] (H-HLMACF[S5]CAK[S5]LKKR-OH; staple 7-11; N-terminus and C-terminus assumed)",2,interacted with the TRB3 protein,100%,100%,93.33%,93.33%
